Experiments:
[1] = system: MDA-MB-231; test: Growth inhibition of human MDA-MB-231/ATCC cells at 10 uM incubated for 48 hrs by sulforhodamine B assay relative to control; type: functional; conditions: MDA-MB-231, 48 h, read-out: GI
[2] = system: PC-3; test: Growth inhibition of human PC3 cells at 10 uM incubated for 48 hrs by sulforhodamine B assay relative to control; type: functional; conditions: PC-3, 48 h, read-out: GI
[3] = system: NCI-H226; test: Growth inhibition of human NCI-H226 cells at 10 uM incubated for 48 hrs by sulforhodamine B assay relative to control; type: functional; conditions: NCI-H226, 48 h, read-out: GI
[4] = system: SW-620; test: Growth inhibition of human SW620 cells at 10 uM incubated for 48 hrs by sulforhodamine B assay relative to control; type: functional; conditions: SW-620, 48 h, read-out: GI
[5] = system: PANC-1; test: Antiproliferative activity against human PANC1 cells after 48 hrs by propidium iodide staining-based fluorometric analysis; type: functional, cell-based; conditions: PANC-1, 48 h
[6] = system: SF-268; test: Growth inhibition of human SF268 cells at 10 uM incubated for 48 hrs by sulforhodamine B assay relative to control; type: functional; conditions: SF-268, 48 h, read-out: GI
[7] = system: KM12; test: Growth inhibition of human KM12 cells at 10 uM incubated for 48 hrs by sulforhodamine B assay relative to control; type: functional; conditions: KM12, 48 h, read-out: GI
[8] = system: UO-31; test: Growth inhibition of human UO31 cells at 10 uM incubated for 48 hrs by sulforhodamine B assay relative to control; type: functional; conditions: UO-31, 48 h, read-out: GI
[9] = system: NCI-H23; test: Growth inhibition of human NCI-H23 cells at 10 uM incubated for 48 hrs by sulforhodamine B assay relative to control; type: functional; conditions: NCI-H23, 48 h, read-out: GI
[10] = system: HCC 2998; test: Growth inhibition of human HCC2998 cells at 10 uM incubated for 48 hrs by sulforhodamine B assay relative to control; type: functional; conditions: HCC 2998, 48 h, read-out: GI
[11] = system: NCI/ADR-RES; test: Growth inhibition of human NCI/ADR-RES cells at 10 uM incubated for 48 hrs by sulforhodamine B assay relative to control; type: functional; conditions: read-out: GI
[12] = system: SF-539; test: Growth inhibition of human SF539 cells at 10 uM incubated for 48 hrs by sulforhodamine B assay relative to control; type: functional; conditions: SF-539, 48 h, read-out: GI
[13] = system: NCI-H322M; test: Growth inhibition of human NCI-H322M cells at 10 uM incubated for 48 hrs by sulforhodamine B assay relative to control; type: functional; conditions: read-out: GI
[14] = system: HCT-15; test: Growth inhibition of human HCT15 cells at 10 uM incubated for 48 hrs by sulforhodamine B assay relative to control; type: functional; conditions: HCT-15, 48 h, read-out: GI
[15] = system: SK-MEL-5; test: Growth inhibition of human SK-MEL-5 cells at 10 uM incubated for 48 hrs by sulforhodamine B assay relative to control; type: functional; conditions: SK-MEL-5, 48 h, read-out: GI
[16] = system: RPMI-8226; test: Growth inhibition of human RPMI8226 cells at 10 uM incubated for 48 hrs by sulforhodamine B assay relative to control; type: functional; conditions: RPMI-8226, 48 h, read-out: GI
[17] = system: Malme-3M; test: Growth inhibition of human MALME-3M cells at 10 uM incubated for 48 hrs by sulforhodamine B assay relative to control; type: functional; conditions: read-out: GI
[18] = system: IGROV-1; test: Growth inhibition of human IGROV1 cells at 10 uM incubated for 48 hrs by sulforhodamine B assay relative to control; type: functional; conditions: IGROV-1, 48 h, read-out: GI
[19] = system: U-251; test: Growth inhibition of human U251 cells at 10 uM incubated for 48 hrs by sulforhodamine B assay relative to control; type: functional; conditions: U-251, 48 h, read-out: GI
[20] = system: HOP-92; test: Growth inhibition of human HOP92 cells at 10 uM incubated for 48 hrs by sulforhodamine B assay relative to control; type: functional; conditions: HOP-92, 48 h, read-out: GI
[21] = system: MOLT-4; test: Growth inhibition of human MOLT4 cells at 10 uM incubated for 48 hrs by sulforhodamine B assay relative to control; type: functional; conditions: MOLT-4, 48 h, read-out: GI
[22] = system: A549; test: Growth inhibition of human A549/ATCC cells at 10 uM incubated for 48 hrs by sulforhodamine B assay relative to control; type: functional; conditions: A549, 48 h, read-out: GI
[23] = system: M14; test: Growth inhibition of human M14 cells at 10 uM incubated for 48 hrs by sulforhodamine B assay relative to control; type: functional; conditions: M14, 48 h, read-out: GI
[24] = system: MCF7; test: Growth inhibition of human MCF7 cells at 10 uM incubated for 48 hrs by sulforhodamine B assay relative to control; type: functional; conditions: MCF7, 48 h, read-out: GI
[25] = system: SNB-75; test: Growth inhibition of human SNB75 cells at 10 uM incubated for 48 hrs by sulforhodamine B assay relative to control; type: functional; conditions: SNB-75, 48 h, read-out: GI
[26] = system: NCI-H460; test: Growth inhibition of human NCI-H460 cells at 10 uM incubated for 48 hrs by sulforhodamine B assay relative to control; type: functional; conditions: NCI-H460, 48 h, read-out: GI
[27] = target: Epidermal growth factor receptor (Homo sapiens, UniProt P00533); test: Inhibition of His6-tagged recombinant EGFR cytoplasmic domain (645 to 1186 residues) (unknown origin) expressed in baculovirus infected Sf9 insect cells preincubated for 10 mins followed by ATP-MgCl2 addition and measured after 1 hr by DELFIA/time-resolved fluorometric analysis
Chain of Epidermal growth factor receptor (P00533 whole entry, the tested form may be a part): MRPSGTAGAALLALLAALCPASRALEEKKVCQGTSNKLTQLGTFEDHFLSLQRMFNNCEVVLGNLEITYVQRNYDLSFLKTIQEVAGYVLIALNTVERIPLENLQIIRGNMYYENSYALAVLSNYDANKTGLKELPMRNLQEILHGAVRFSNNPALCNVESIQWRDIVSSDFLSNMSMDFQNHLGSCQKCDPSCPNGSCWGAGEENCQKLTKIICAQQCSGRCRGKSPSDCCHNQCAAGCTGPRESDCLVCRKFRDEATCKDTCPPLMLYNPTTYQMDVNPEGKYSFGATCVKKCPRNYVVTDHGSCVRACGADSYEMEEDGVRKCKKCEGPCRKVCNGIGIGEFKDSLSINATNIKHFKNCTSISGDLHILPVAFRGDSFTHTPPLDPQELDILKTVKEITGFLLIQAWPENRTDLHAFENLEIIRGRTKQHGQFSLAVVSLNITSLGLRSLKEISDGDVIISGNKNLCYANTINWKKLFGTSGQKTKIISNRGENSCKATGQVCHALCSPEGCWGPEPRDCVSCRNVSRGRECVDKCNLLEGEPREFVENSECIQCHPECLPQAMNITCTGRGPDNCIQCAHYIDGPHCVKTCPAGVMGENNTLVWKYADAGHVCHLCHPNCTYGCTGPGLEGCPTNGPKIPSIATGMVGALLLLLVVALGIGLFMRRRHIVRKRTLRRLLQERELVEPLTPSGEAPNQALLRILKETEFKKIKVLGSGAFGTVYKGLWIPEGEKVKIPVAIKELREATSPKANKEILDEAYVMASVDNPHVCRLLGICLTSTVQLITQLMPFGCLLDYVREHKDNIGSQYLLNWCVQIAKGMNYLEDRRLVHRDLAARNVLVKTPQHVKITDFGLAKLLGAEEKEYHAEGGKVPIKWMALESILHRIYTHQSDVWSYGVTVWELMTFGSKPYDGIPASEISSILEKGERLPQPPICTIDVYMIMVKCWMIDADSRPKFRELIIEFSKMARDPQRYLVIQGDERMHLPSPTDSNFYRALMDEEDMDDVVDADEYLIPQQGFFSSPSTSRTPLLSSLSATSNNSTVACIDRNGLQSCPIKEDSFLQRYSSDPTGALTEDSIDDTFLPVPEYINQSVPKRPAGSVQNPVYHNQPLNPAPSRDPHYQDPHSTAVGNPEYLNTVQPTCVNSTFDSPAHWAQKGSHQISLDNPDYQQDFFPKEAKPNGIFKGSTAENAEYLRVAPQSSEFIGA

[28] = system: EKVX; test: Growth inhibition of human EKVX cells at 10 uM incubated for 48 hrs by sulforhodamine B assay relative to control; type: functional; conditions: read-out: GI
[29] = system: 786-0; test: Growth inhibition of human 786-0 cells at 10 uM incubated for 48 hrs by sulforhodamine B assay relative to control; type: functional; conditions: 786-0, 48 h, read-out: GI
[30] = system: MDA-MB-435; test: Growth inhibition of human MDA-MB-435 cells at 10 uM incubated for 48 hrs by sulforhodamine B assay relative to control; type: functional; conditions: MDA-MB-435, 48 h, read-out: GI
[31] = system: HT-29; test: Growth inhibition of human HT-29 cells at 10 uM incubated for 48 hrs by sulforhodamine B assay relative to control; type: functional; conditions: HT-29, 48 h, read-out: GI
[32] = system: HOP-62; test: Growth inhibition of human HOP62 cells at 10 uM incubated for 48 hrs by sulforhodamine B assay relative to control; type: functional; conditions: HOP-62, 48 h, read-out: GI
[33] = system: ACHN; test: Growth inhibition of human ACHN cells at 10 uM incubated for 48 hrs by sulforhodamine B assay relative to control; type: functional; conditions: read-out: GI
[34] = system: RXF 393; test: Growth inhibition of human RXF393 cells at 10 uM incubated for 48 hrs by sulforhodamine B assay relative to control; type: functional; conditions: RXF 393, 48 h, read-out: GI
[35] = system: SR; test: Growth inhibition of human SR cells at 10 uM incubated for 48 hrs by sulforhodamine B assay relative to control; type: functional; conditions: read-out: GI

| Structure (SMILES) | inhibition of growth at 10 µM [1] | inhibition of growth at 10 µM [2] | inhibition of growth at 10 µM [3] | inhibition of growth at 10 µM [4] | IC50 [5] | inhibition of growth at 10 µM [6] | inhibition of growth at 10 µM [7] | inhibition of growth at 10 µM [8] | inhibition of growth at 10 µM [9] | inhibition of growth at 10 µM [11] | inhibition of growth at 10 µM [13] | inhibition of growth at 10 µM [14] | inhibition of growth at 10 µM [15] | inhibition of growth at 10 µM [16] | inhibition of growth at 10 µM [19] | inhibition of growth at 10 µM [20] | inhibition of growth at 10 µM [21] | inhibition of growth at 10 µM [22] | inhibition of growth at 10 µM [23] | inhibition of growth at 10 µM [24] | further results |
| --- | --- | --- | --- | --- | --- | --- | --- | --- | --- | --- | --- | --- | --- | --- | --- | --- | --- | --- | --- | --- | --- |
| Clc1ccc(-c2cn3nc(-c4ccccc4)nc3s2)cc1 | 57% | 31% | 32% | 13% | 5.2 µM | 20% | 30% | 40% | 33% | 34% | 20% | 9% | 21% | 10% | 25% | 53% | 8% | 36% | 15% | 35% | inhibition of growth at 10 µM [10]: 10%; inhibition of growth at 10 µM [12]: 21%; inhibition of growth at 10 µM [17]: 10%; inhibition of growth at 10 µM [18]: 55%; inhibition of growth at 10 µM [25]: 36%; inhibition of growth at 10 µM [26]: 37%; IC50 [27]: 7.2 µM; inhibition of growth at 10 µM [28]: 28%; inhibition of growth at 10 µM [29]: 53%; inhibition of growth at 10 µM [30]: 11%; inhibition of growth at 10 µM [31]: 26%; inhibition of growth at 10 µM [32]: 40%; inhibition of growth at 10 µM [33]: 49%; inhibition of growth at 10 µM [34]: 39% |
| c1ccc(-c2nc3sc(-c4ccccc4)cn3n2)cc1 | 35% | 37% | 27% | 5% | 7.2 µM | 7% | 18% | 53% | 16% | 14% | 11% | 8% | 20% | 14% | 6% | 25% | 11% | 10% | 13% | 61% | inhibition of growth at 10 µM [35]: 9%; inhibition of growth at 10 µM [18]: 43%; inhibition of growth at 10 µM [25]: 15%; inhibition of growth at 10 µM [26]: 6%; IC50 [27]: 9.8 µM; inhibition of growth at 10 µM [28]: 21%; inhibition of growth at 10 µM [31]: 9%; inhibition of growth at 10 µM [32]: 33%; inhibition of growth at 10 µM [33]: 14%; inhibition of growth at 10 µM [34]: 9% |
| COc1cc(-c2nc3sc(-c4ccccc4)cn3n2)cc(OC)c1OC | 41% | 53% | 23% | 6% | 4.9 µM | 9% | 14% | 43% | 17% | 39% | 7% | 42% | 41% | 42% | 32% | 50% | 44% | 23% | 25% | 23% | inhibition of growth at 10 µM [35]: 65%; inhibition of growth at 10 µM [12]: 15%; inhibition of growth at 10 µM [25]: 24%; inhibition of growth at 10 µM [26]: 18%; IC50 [27]: 2.8 µM; inhibition of growth at 10 µM [28]: 63%; inhibition of growth at 10 µM [29]: 14%; inhibition of growth at 10 µM [30]: 16%; inhibition of growth at 10 µM [31]: 18%; inhibition of growth at 10 µM [32]: 15%; inhibition of growth at 10 µM [33]: 15%; inhibition of growth at 10 µM [34]: 17% |

Reference: ChEMBL document CHEMBL4270577, “Synthesis, anticancer activity and molecular modeling studies of 1,2,4-triazole derivatives as EGFR inhibitors” (Eur J Med Chem, 2018)
